Source: US10059698B2, “Hesperetin aza-cinnamic acid derivatives with anti-tumor activities and a method of preparing the same” (Shaanxi University of Science and Technology, priority 2016, dated 2018)

Tests used:
[1] = rats; cited from earlier work
HepG2 cells = conditions: in vitro; time-dependent and dose-effect relationship; cited from earlier work
[2] = system: tumor cells (A549, SMMC-7721, U251, SGC-7901, MCF-7); assay: tumor cell proliferation inhibition test (MTT), all cell lines tested; type: cell-based, human; conditions: in some cell lines tested
Source text: (§1) The compounds of the present invention were subjected to tumor cell proliferation inhibition test, and the conventional MTT method was used as the test method.
(§2) Cell lines selected are nonismall cell lung cancer cells (A549), human hepatocellular carcinoma cells (SMMC-7721), human glioma cells (U251), human gastric adenocarcinoma cells (SGC-7901), and human breast cancer cells (MCF-7). The culture medium was DMEM+15% NBS+double antibody.
(§3) Preparation of the sample solutions: compounds were dissolved in DMSO (Merck), and PBS (−) was add to 100 μL of the solution or homogeneous suspension. The solution or suspension was diluted with DMSO and PBS(−) to final concentrations of 0.1, 1, 10, 20, 40, 60, 80, 100 μmol/L.
(§4) Anti-tumor agent cytarabine (Ara-C) was used as control and was prepared in the same way as the compounds.
(§5) Cell culture: adherent growth Tumor cells were cultured in 1640 medium containing 10% inactivated neonatal bovine serum and penicillin, streptomycin (1 million U/L), placed in carbon dioxide incubator at 37° C., 5% CO2, and saturated humidity. Cells were treated serially passaged 2-3 times. The first culture was washed with PBS 2 times, and digested with trypsin. Fresh culture medium was added evenly, cells were adjusted to a appropriate concentration and transferred into a new culture flask. Cell in an exponential phase were chosen for the tests.
(§6) Experimental Principle: Living cells mitochondria in the dehydrogenase can reduce yellow MTT to water-insoluble blue-violet product MT (MTT formazan), deposited in the cells. The amount of production is proportional to the number of living cells. […] DMSO can dissolve blue violet crystals, and the color depth is proportional to the amount contained, so the absorbance measured by the microplate reader can reflect the cell viability.
(§7) Methods: The exponential phase cells were digested and counted and seeded in 96-well plates at a density of 2×10^4/mL at 100 μl per well. After 24 hours of incubation, the cells to be tested were treated with 0.1, 1, 10, 20, 40, 60, 80, 100 μmol/L of the compounds. Each experimental group had 5 wells in each concentration, and the culture medium containing 0.4% DMSO was used as control. After 48 hours, the supernatant was discarded, and 100 μl of MTT ((2-(4,5-dimethyl-2-thiazolyl)-3,5-diphenyl-2H-[…]) (1 mg/mL) was added to each well. After another 4 hours, the supernatant was discarded, and 100 μL of DMSO was added to each well. After mixing, the absorbance was measured at 570 nm using a microplate reader. An IC50 calculation software was used to determine the half inhibitory concentration (IC50).

[3] = system: human glioma cells (U251); assay: tumor cell proliferation inhibition test (MTT), U251; type: cell-based; conditions: U-251, 48 hours
Source text: as §1, §2, §3, §4, §5, §6, §7

[4] = system: nonismall cell lung cancer cells (A549); assay: tumor cell proliferation inhibition test (MTT), A549; type: cell-based; conditions: Homo sapiens, 48 hours
Source text: as §1, §2, §3, §4, §5, §6, §7

[5] = system: human gastric adenocarcinoma cells (SGC-7901); assay: tumor cell proliferation inhibition test (MTT), SGC-7901; type: cell-based; conditions: SGC-7901 cells, 48 hours
Source text: as §1, §2, §3, §4, §5, §6, §7

[6] = system: human hepatocellular carcinoma cells (SMMC-7721); assay: tumor cell proliferation inhibition test (MTT), SMMC-7721; type: cell-based; conditions: SMMC-7721 cells, 48 hours
Source text: as §1, §2, §3, §4, §5, §6, §7

[7] = system: human breast cancer cells (MCF-7); assay: tumor cell proliferation inhibition test (MTT), MCF-7; type: cell-based; conditions: MCF7, MCF-7 cells, 48 hours
Source text: as §1, §2, §3, §4, §5, §6, §7

Structure (SMILES) | toxicity of doxorubicin [1] | inhibition of proliferation of HepG2 cells (HepG2 cells) | activities compared with Ara-C [2] | IC50 [3] | IC50 [4] | IC50 [5] | IC50 [6] | IC50 [7]
COc1ccc([C@@H]2CC(=O)c3c(O)cc(O)cc3O2)cc1O [hesperetin, Hesperetin] | could reduce the toxicity of doxorubicin in rats | can inhibit the proliferation of HepG2 cells in vitro |  |  |  |  |  | 
COc1ccc([C@@H]2CC(=O)c3c(O)cc(OC(=O)/C=C/c4ccccn4)cc3O2)cc1O [Compound A, (S,E) 5-hydroxy-2-(3-hydroxy-4-methoxyphenyl)-4-oxochroman-7-yl 3-(pyridin-2-yl) acrylic acid ester] |  |  | equal or better activities than Ara-C | > 100 µM | 35.1 ± 0.47 µM | 89.9 ± 1.02 µM | 46.8 ± 1.56 µM | 43.1 ± 1.31 µM
COc1ccc([C@@H]2CC(=O)c3c(O)cc(OC(=O)/C=C/c4ccc(C)cn4)cc3O2)cc1OC [Compound H, (S,E) 2-(3,4-dimethoxyphenyl)-5-hydroxy-4-oxochroman-7-yl 3-(5-methylpyridin-2-yl) acrylate acid ester] |  |  | equal or better activities than Ara-C | > 100 µM | > 100 µM | 63.9 ± 2.28 µM | 47.88 ± 0.4 µM | > 100 µM
COc1ccc([C@@H]2CC(=O)c3c(O)cc(OC(=O)/C=C/c4ccc(C)cn4)cc3O2)cc1O [Compound B, (S,E) 5-hydroxy-2-(3-hydroxy-4-methoxyphenyl)-4-oxochroman-7-yl 3-(5-methylpyridin-2-yl) acrylate acid ester] |  |  | equal or better activities than Ara-C | 46 ± 0.21 µM | > 100 µM | > 100 µM | 67.1 ± 1.74 µM | > 100 µM
COc1ccc([C@@H]2CC(=O)c3c(O)cc(OC(=O)/C=C/c4ccc(F)cn4)cc3O2)cc1OC [Compound J, (S,E) 2-(3,4-dimethoxyphenyl)-5-hydroxy-4-oxochroman-7-yl 3-(5-fluoropyridin-2-yl) acrylate acid ester] |  |  | equal or better activities than Ara-C | 25.1 ± 0.47 µM | 46.3 ± 0.47 µM | > 100 µM | 84.31 ± 0.47 µM | 16.1 ± 0.47 µM
COc1ccc([C@@H]2CC(=O)c3c(O)cc(OC(=O)/C=C/c4ccccn4)cc3O2)cc1OC [Compound G, (S,E) 2-(3,4-dimethoxyphenyl)-5-hydroxy-4-oxochroman-7-yl 3-(pyridin-2-yl) acrylate acid ester] |  |  | equal or better activities than Ara-C | 28.5 ± 0.45 µM | 69.13 ± 0.36 µM | > 100 µM | > 100 µM | > 100 µM
COc1ccc([C@@H]2CC(=O)c3c(O)cc(OC(=O)/C=C/c4ccc(O)c(OC)n4)cc3O2)cc1OC [Compound M, (S,E) 2-(3,4-dimethoxyphenyl)-5-hydroxy-4-oxochroman-7-yl 3-(5-hydroxy-6-methoxypyridin-2-yl) acrylate acid ester] |  |  | equal or better activities than Ara-C | > 100 µM | > 100 µM | 63.87 ± 0.4 µM | 33.3 ± 2.08 µM | 18.6 ± 1.01 µM
COc1ccc([C@@H]2CC(=O)c3c(O)cc(OC(=O)/C=C/c4ccc([N+](=O)[O-])cn4)cc3O2)cc1OC [Compound K, (S,E) 2-(3,4-dimethoxyphenyl)-5-hydroxy-4-oxochroman-7-yl 3-(5-nitropyridin-2-yl) acrylate acid ester] |  |  |  | > 100 µM | > 100 µM | > 100 µM | > 100 µM | > 100 µM
Nc1ccn([C@@H]2O[C@H](CO)[C@@H](O)[C@@H]2O)c(=O)n1 [Ara-C, cytarabine, reference compound] |  |  |  | 19.2 ± 0.39 µM | > 100 µM | 67.6 ± 3.73 µM | 18.3 ± 0.64 µM | 76.9 ± 1.78 µM
COc1ccc([C@@H]2CC(=O)c3c(O)cc(OC(=O)/C=C/c4ccc(Cl)cn4)cc3O2)cc1O [Compound C, (S,E) 5-hydroxy-2-(3-hydroxy-4-methoxyphenyl)-4-oxochroman-7-yl 3-(5-chloropyridin-2-yl) acrylate acid ester] |  |  | equal or better activities than Ara-C | 11.7 ± 0.45 µM | 5.54 ± 0.39 µM | 18.4 ± 1.71 µM | 86.9 ± 2.28 µM | 22.7 ± 0.32 µM
COc1ccc([C@@H]2CC(=O)c3c(O)cc(OC(=O)/C=C/c4ccc(Cl)cn4)cc3O2)cc1OC [Compound I, (S,E) 2-(3,4-dimethoxyphenyl)-5-hydroxy-4-oxochroman-7-yl 3-(5-chloropyridin-2-yl) acrylate acid ester] |  |  | equal or better activities than Ara-C | 63.9 ± 2.28 µM | > 100 µM | 16.1 ± 0.47 µM | 63.9 ± 2.28 µM | > 100 µM
COc1ccc([C@@H]2CC(=O)c3c(O)cc(OC(=O)/C=C/c4ccc(O)c(OC)n4)cc3O2)cc1O [Compound F, (S,E) 5-hydroxy-2-(3-hydroxy-4-methoxyphenyl)-4-oxochroman-7-yl 3-(5-hydroxy-6-methoxypyridin-2-yl) acrylate acid ester] |  |  | equal or better activities than Ara-C | > 100 µM | > 100 µM | > 100 µM | 23.7 ± 1.5 µM | 92.1 ± 2.73 µM
COc1ccc([C@@H]2CC(=O)c3c(O)cc(OC(=O)/C=C/c4ccc([N+](=O)[O-])cn4)cc3O2)cc1O [Compound E, (S,E) 5-hydroxy-2-(3-hydroxy-4-methoxyphenyl)-4-oxochroman-7-yl 3-(5-nitropyridin-2-yl) acrylate acid ester] |  |  |  | > 100 µM | > 100 µM | > 100 µM | > 100 µM | > 100 µM
COc1ccc([C@@H]2CC(=O)c3c(O)cc(OC(=O)/C=C/c4ccc(F)cn4)cc3O2)cc1O [Compound D, (S,E) 5-hydroxy-2-(3-hydroxy-4-methoxyphenyl)-4-oxochroman-7-yl 3-(5-fluoropyridin-2-yl) acrylate acid ester] |  |  | equal or better activities than Ara-C | 57.13 ± 0.47 µM | 7.28 ± 0.13 µM | 67.13 ± 0.28 µM | 12.8 ± 1.37 µM | 23.7 ± 1.5 µM
